US6653529B2, “Use of the maize X112 mutant ahas 2 gene and imidazolinone herbicides for selection of transgenic monocots, maize, rice and wheat plants resistant to the imidazolinone herbicides” (BASF Aktiengesellschaft, priority 2000, dated 2003)

Key:
[1] = system: transgenic rice Line 26; experiment: Response of rice plants to various herbicides, seed set in greenhouse; assay type: in vivo; details: post-emergence, 1× g ai/ha: PURSUIT 62.5, CADRE 32, ARSENAL 24, RAPTOR 32, SCEPTER 125, ACCENT 35, CLASSIC 5, AC322,140 20, LONDAX 68
Excerpt: (§1) A total of 9 herbicides, 5 imidazolinones, two rice herbicides and ACCENT® (nicosulfuron) and CLASSIC® (clorimuron-ethyl) were applied in this study. Materials and methods were basically the same as described above, except that instead of 6″ pots, flats with 18 (3″×3″ per cell) cells were used, and 10-12 seeds were planted to one 3″×3″ cell. Ten plants were maintained in one cell in the post-emergence application. Each herbicide was sprayed at 4 different rates, 1, 2, 4, and 6×, as either pre or post-emergence applications with three replications per treatment. The name and amount of herbicide applied in this experiment and information relevant to their commercial applications are listed in Table 3. For simplicity and convenience, the lowest concentration used is referred as 1× rate, 2, 4 and 6× rates can be calculated as multiples of 1×.
(§2) To monitor plant response to various herbicides, data on fresh weight was collected. For pre-emergence applications, all plants from one cell were harvested 32 days after spraying (36-day old plants) and weighed. Twenty-nine days after herbicide application, 5 plants (44-day old plants) from each cell in the post-emergence application, were cut and weighed individually. Mean fresh weight for each treatment was calculated over three replications. The remaining 5 plants were grown in the greenhouse to maturity at which time, panicles of 3 plants were collected, and number of filled seeds and number of total kernels were counted to determine percentage of seed set.

[2] = system: transgenic rice Line 29; experiment: as above; assay type: in vivo; details: post-emergence, 1× g ai/ha: PURSUIT 62.5, CADRE 32, ARSENAL 24, RAPTOR 32, SCEPTER 125, ACCENT 35, CLASSIC 5, AC322,140 20, LONDAX 68
Excerpt: as §1, §2

[3] = system: untransformed Nt rice plants; experiment: as above; assay type: in vivo; details: post-emergence, 1× g ai/ha: PURSUIT 62.5, CADRE 32, ARSENAL 24, RAPTOR 32, SCEPTER 125, ACCENT 35, CLASSIC 5, AC322,140 20, LONDAX 68
Excerpt: as §1, §2

[4] = system: rice plants (transgenic Lines 26 and 29; Nt control); experiment: Greenhouse herbicide tests on rice; assay type: in vivo
Excerpt: We evaluated the response of transgenic rice to PURSUIT® imazethapyr application in the greenhouse. In this experiment, we included 2 transgenic lines and their untransformed counterpart (Nt). The transgenic lines, designated as Line 26 and 29, were T3 progeny derived from previously identified homozygous resistant transgenic plants containing the maize XI12 ahas2 gene driven by its own promoter. All seeds were pre-germinated in water for 2-3 days then grown in a planting mixture consisting of 1:1 soil and MetroMix 360 (The Scotts Company, Marysville, Ohio 43040) in 6-inch pots (2 seeds per pot) in the greenhouse and sprayed with PURSUIT® imazethapyr at 63, 125, or 250 g ai/ha. For post-emergence application, the plants were sprayed 15 days after seeding, at which time most plants had 3 leaves. For pre-emergence treatment, PURSUIT® imazethapyr was sprayed one day after seeding. Each treatment contained 20 plants and, and 3 replicates per treatment. One set of materials was not sprayed and used as control. The plants were grown in the greenhouse and harvested at maturity. The amount of PURSUIT® imazethapyr applied in this study (63, 125, or 250 g ai/ha) was close to 1, 2 or 4× field application rate for imi-resistant corn (refer to Table 3) since PURSUIT® imazethapyr is not currently labeled for use in rice fields. A custom designed belt sprayer was operated as described (Newhouse et al. 1992) for all herbicide applications. Five plants from each treatment were randomly chosen and individually measured for morphological traits. Means and standard deviations were calculated over three replications. Plant heights were measured from the base of the plant to the tip of the flag leaf 93 days after herbicide applications (DAH) and number of tillers per plant were counted 102-103 DAH. Data on number of panicles per plant and yield were collected after plants were harvested.
as §1, §2

[5] = system: AHAS (acetohydroxyacid synthase) in extracts of Nortai, Line 26 and Line 29; experiment: In vitro AHAS activity assay; assay type: biochemical, rice; details: Nt, Line 26, Line 29; FIG. 2
Protocol: Previously published procedures were used for the extraction and in vitro assay for AHAS activity (Singh et al. 1988). Lower portions of the shoots were used as the source of plant tissue for the assay. The desalted crude extracts were used for the in vitro enzyme assays. Acetolactate produced by the enzyme was converted to acetoin, which was measured by the Westerfield assay system.
In vitro AHAS assays were performed to understand the basis of herbicide tolerance in the transgenic plants. Previously published procedure was used for the extraction and in vitro assay for AHAS activity (Singh et al. 1988). The lower portions of the shoots were used as the source of plant tissue for the assay. The desalted crude extracts were used for the in vitro enzyme assays. Acetolactate produced by the enzyme was converted to acetoin, which was measured by the Westerfield assay system (Westerfield 1945). The specific activity of AHAS was about 30% higher in Line 26 (67 nmoles/mg protein/h) and Line 29 (64 nmoles/mg protein/h) compared to the activity in Nortai (Nt) (50 nmoles/mg protein/h).

[6] = system: transgenic rice containing 35S/als transgene; details: cited from earlier work

SMILES	% seed-set ([1]; 1× rate)	No. filled seeds/3 panicles ([1]; 1× rate)	Total No. of kernels/3 panicles ([1]; 1× rate)	% seed-set ([1]; 2× rate)	No. filled seeds/3 panicles ([1]; 2× rate)	Total No. of kernels/3 panicles ([1]; 2× rate)	% seed-set ([1]; 4× rate)	No. filled seeds/3 panicles ([1]; 4× rate)	Total No. of kernels/3 panicles ([1]; 4× rate)	% seed-set ([1]; 6× rate)	No. filled seeds/3 panicles ([1]; 6× rate)	Total No. of kernels/3 panicles ([1]; 6× rate)	% seed-set ([2]; 1× rate)	No. filled seeds/3 panicles ([2]; 1× rate)	Total No. of kernels/3 panicles ([2]; 1× rate)	% seed-set ([2]; 2× rate)	No. filled seeds/3 panicles ([2]; 2× rate)	Total No. of kernels/3 panicles ([2]; 2× rate)	% seed-set ([2]; 4× rate)	No. filled seeds/3 panicles ([2]; 4× rate)	further results
COC(=O)c1ccccc1CS(=O)(=O)NC(=O)Nc1nc(OC)cc(OC)n1 [LONDAX ®, bensulfuron-methyl]	80%	140	173	90%	140	156	65%	102	136	89%	127	143	80%	125	156	90%	133	148	87%	155	Total No. of kernels/3 panicles ([2]; 4× rate): 177; % seed-set ([2]; 6× rate): 86%; No. filled seeds/3 panicles ([2]; 6× rate): 150; Total No. of kernels/3 panicles ([2]; 6× rate): 175; % seed-set ([3]; 1× rate): 85%; No. filled seeds/3 panicles ([3]; 1× rate): 147; Total No. of kernels/3 panicles ([3]; 1× rate): 172; % seed-set ([3]; 2× rate): 93%; No. filled seeds/3 panicles ([3]; 2× rate): 142; Total No. of kernels/3 panicles ([3]; 2× rate): 154; % seed-set ([3]; 4× rate): 91%; No. filled seeds/3 panicles ([3]; 4× rate): 113; Total No. of kernels/3 panicles ([3]; 4× rate): 127; % seed-set ([3]; 6× rate): 96%; No. filled seeds/3 panicles ([3]; 6× rate): 109; Total No. of kernels/3 panicles ([3]; 6× rate): 114; effect on growth of all plants treated ([4]; transgenic and control plants): minimal effect
CC(C)C1(C)N=C(c2nc3ccccc3cc2C(=O)O)NC1=O (stereo not shown) [SCEPTER ®, imazaquin]	86%	148	172	64%	87	135	88%	147	166	62%	86	109	87%	138	159	86%	143	165	85%	131	Total No. of kernels/3 panicles ([2]; 4× rate): 155; % seed-set ([2]; 6× rate): 88%; No. filled seeds/3 panicles ([2]; 6× rate): 139; Total No. of kernels/3 panicles ([2]; 6× rate): 159; % seed-set ([3]; 1× rate): 0%; No. filled seeds/3 panicles ([3]; 1× rate): 0; Total No. of kernels/3 panicles ([3]; 1× rate): 0; % seed-set ([3]; 2× rate): 0%; No. filled seeds/3 panicles ([3]; 2× rate): 0; Total No. of kernels/3 panicles ([3]; 2× rate): 0; % seed-set ([3]; 4× rate): 0%; No. filled seeds/3 panicles ([3]; 4× rate): 0; Total No. of kernels/3 panicles ([3]; 4× rate): 0; % seed-set ([3]; 6× rate): 0%; No. filled seeds/3 panicles ([3]; 6× rate): 0; Total No. of kernels/3 panicles ([3]; 6× rate): 0; average seed set in two transgenic lines ([4]; PURSUIT, RAPTOR, CADRE, SCEPTER at all rates tested, ARSENAL 1 to 2×): about 85%; rate at which growth of transgenic plants was slightly affected ([4]; post-emergence, fresh weight and visual observation): 6 ×; rate at which growth of both transgenic lines was affected ([4]; pre-emergence): ≥ 2 ×
COc1nc(C)nc(NC(=O)NS(=O)(=O)c2ccccc2Cl)n1 [chlorsulfuron]	–	–	–	–	–	–	–	–	–	–	–	–	–	–	–	–	–	–	–	–	inhibition of AHAS activity from all three lines [5]: inhibited in a similar manner; differences in in vitro resistance ([6]; Arabidopsis ALS promoter replaced with CaMV35S promoter (Li et al. 1992)): 40 fold; increase in in vitro resistance ([6]; transgenic rice containing 35S/als transgene (Li et al. 1992)): 200 fold
